Data on one compound can be found in the supplement of paper PMC8149375.

Each structure is given as a SMILES string.

Holding throughout (details): treatment: drug alone; 5 days
Assay [1] deals with TK-10. The experiment in a line: AUC of dose-response viability curve, drug alone (arbitrary (AUC of normalised viability)); higher = less growth inhibition. On the procedure: (§1)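 Primary HTS: 8 RCC cell lines treated with 8 doses (up to 10 uM) of each library drug alone for 5 days; viability read by CellTiter-Glo and normalised to DMSO. GI50 was fitted with XLfit (4-parameter), AUC is the area under the dose-response curve, and minimum viability is the lowest fraction of DMSO viability across doses.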

Assay [2] deals with ACHN. The description is as above. On the procedure:
as §1

The test system of assay [3] is SN12C. Described as above. As to the method:
as §1

The test system of assay [4] is A498. Described as above. As to the method:
as §1

The test system of assay [5] is 786-O. Described as above. On the procedure: as §1
The test system of assay [6] is 769-P. The assay is described as above. As to the method: as §1
In assay [7] the test system is UO-31. The assay is described as above. As to the method: as §1
In assay [8] the test system is CAKI-1. The description is as above. As to the method: as §1
Assay [9] deals with TK-10. In words: minimum viability across doses, drug alone, relative to DMSO (fraction); higher = less growth inhibition. As to the method:
as §1

Assay [10] deals with ACHN. Described as above. As to the method:
as §1

In assay [11] the test system is SN12C. Described as above. As to the method:
as §1

Assay [12] has as its system A498. Described as above. As to the method:
as §1

Assay [13] concerns 786-O. The assay is described as above. As to the method: as §1
Assay [14] has as its system 769-P. Described as above. As to the method:
as §1

Assay [15] deals with UO-31. Described as above. As to the method: as §1
Assay [16] has as its system CAKI-1. The description is as above. As to the method: as §1
Assay [17] has as its system TK-10. The experiment in a line: GI50, drug alone; higher = less potent. On the procedure: as §1
Assay [18] deals with ACHN. In words: GI50, drug alone; higher = less potent. On the procedure:
as §1

The subject of assay [19] is SN12C. In words: GI50, drug alone; higher = less potent. As to the method:
as §1

The test system of assay [20] is A498. In words: GI50, drug alone; higher = less potent. As to the method:
as §1

The subject of assay [21] is 786-O. In words: GI50, drug alone; higher = less potent. As to the method: as §1
In assay [22] the test system is 769-P. In words: GI50, drug alone; higher = less potent. On the procedure: as §1
The test system of assay [23] is UO-31. The experiment in a line: GI50, drug alone; higher = less potent. As to the method: as §1
The test system of assay [24] is CAKI-1. In words: GI50, drug alone; higher = less potent. As to the method:
as §1

On to `COC(=O)Nc1ccc(-c2nc(N3CCOCC3)c3cnn(C4CCN(Cc5cccnc5)CC4)c3n2)cc1` [WYE-687], for which the “AUC of dose-response viability curve” value with TK-10 [1] amounted to 2.1; with ACHN [2] it was 2.34; with SN12C [3] it was 2.45; in the assay with A498 [4], 3.76; with 786-O [5], 2.92; in the assay with 769-P [6], 2.67. The “AUC of dose-response viability curve” value came to 2.83 in the assay with UO-31 [7] and 2.23 with CAKI-1 [8]. In addition, the “minimum viability across doses” value in the assay on TK-10 [9] was 0.0981; in the assay with ACHN [10], 0.0636; with SN12C [11] it was 0.141; in the assay with A498 [12], 0.351; in the assay with 786-O [13] it was 0.441; with 769-P [14] it was 0.184. Also, the “minimum viability across doses” value came to 0.00593 in the assay on UO-31 [15] and 0.075 in the assay on CAKI-1 [16]. The “GI50, drug alone” value in the assay with TK-10 [17] came to 501 nM; in the assay with ACHN [18], 551 nM; with SN12C [19] it was 996 nM; with A498 [20], 4610 nM; in the assay on 786-O [21], 1480 nM; in the assay on 769-P [22], 1590 nM. In addition, the “GI50, drug alone” value is 581 nM in the assay on UO-31 [23] and 577 nM with CAKI-1 [24].
